Read-outs that look alike come from different tables or passages of the source.
Legend:
Assay type in all cases: biochemical
[1] = target: recombinant human MMP-12 catalytic domain (Homo sapiens (Human), UniProt P39900); assay: MMP-12 inhibitory assay (fluorogenic substrate cleavage)
Protocol: (§1) The inhibitory effect of compounds on the rate of cleaving fluorogenic MMP substrate (Enzo, BML-P128) by recombinant human MMP-12 catalytic domain (Enzo, BML-SE138) was carried out by methods known in the art. Briefly, to each well of a 96-well black opaque plate, all the reagents were sequentially added by pipetting, and the final reaction contained 4 nM of recombinant human MMP-12 catalytic domain, 4 μM of fluorogenic MMP substrate, and various concentrations (0.15 nM to 10,000 nM) of tested compound dilutions in HEPES buffer (pH 7.5) containing 10 mM of CaCl2, 0.01% Brij® 35 (polyoxyethylene (23) lauryl ether), and 0.1 mg/ml of BSA.
(§2) The enzyme and compounds were pre-incubated on a shaker to mix in wells. After an hour of mixing, fluorogenic substrate was added to each well. Reaction without enzyme was used as a blank control in the plate. The plate was then fed into a plate reader to measure fluorescence intensity at Excitation/Emission wavelengths of 340 nm/440 nm every 10 mins for at least 1 hour at 37° C. The IC50 of each compound in MMP-12 inhibition was determined by using a readout obtained at time point 30 minutes.

recombinant human MMP-7 = recombinant human MMP-7 (Homo sapiens (Human), UniProt P09237); assay: MMP selectivity assay MMP-7
Protocol: as §1, §2
(§3) The MMP selectivity assay was performed by using other recombinant human MMPs, including MMP-1, MMP-2, MMP-3, MMP-7, MMP-8, MMP-9, MMP-10, MMP-13, and MMP-14. The IC50 of the compounds for the other recombinant human MMPs was determined as described above in Example 1, and are shown in Table 2.

recombinant human MMP-1 = recombinant human MMP-1 (Homo sapiens (Human), UniProt P03956); assay: MMP selectivity assay MMP-1
Protocol: as §1, §2, §3

recombinant human MMP-10 = recombinant human MMP-10 (Homo sapiens (Human), UniProt P09238); assay: MMP selectivity assay MMP-10
Protocol: as §1, §2, §3

recombinant human MMP-14 = recombinant human MMP-14 (Homo sapiens (Human), UniProt P50281); assay: MMP selectivity assay MMP-14
Protocol: as §1, §2, §3

recombinant human MMP-3 = recombinant human MMP-3 (Homo sapiens (Human), UniProt P08254); assay: MMP selectivity assay MMP-3
Protocol: as §1, §2, §3

recombinant human MMP-13 = recombinant human MMP-13 (Homo sapiens (Human), UniProt P45452); assay: MMP selectivity assay MMP-13
Protocol: as §1, §2, §3

recombinant human MMP-9 = recombinant human MMP-9 (Homo sapiens (Human), UniProt P14780); assay: MMP selectivity assay MMP-9
Protocol: as §1, §2, §3

recombinant human MMP-2 = recombinant human MMP-2 (Homo sapiens (Human), UniProt P08253); assay: MMP selectivity assay MMP-2
Protocol: as §1, §2, §3

recombinant human MMP-8 = recombinant human MMP-8 (Homo sapiens (Human), UniProt P22894); assay: MMP selectivity assay MMP-8
Protocol: as §1, §2, §3

[2] = readout at 30 minutes, read-out: MMP-12 IC50
[3] = Table 2 selectivity profile, read-out: MMP-12 activity (IC50)

Chain of recombinant human MMP-8 (P22894 101-467): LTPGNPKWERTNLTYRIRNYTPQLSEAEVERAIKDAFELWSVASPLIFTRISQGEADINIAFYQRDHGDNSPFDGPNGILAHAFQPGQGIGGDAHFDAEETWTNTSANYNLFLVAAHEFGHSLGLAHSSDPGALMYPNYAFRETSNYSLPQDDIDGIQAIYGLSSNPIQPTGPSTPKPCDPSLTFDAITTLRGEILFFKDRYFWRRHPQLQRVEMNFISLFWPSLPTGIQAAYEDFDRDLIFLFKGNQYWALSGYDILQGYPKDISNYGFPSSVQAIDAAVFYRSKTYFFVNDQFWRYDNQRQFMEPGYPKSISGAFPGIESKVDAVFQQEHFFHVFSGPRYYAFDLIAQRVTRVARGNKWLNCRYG
Chain of recombinant human MMP-1 (P03956 100-469): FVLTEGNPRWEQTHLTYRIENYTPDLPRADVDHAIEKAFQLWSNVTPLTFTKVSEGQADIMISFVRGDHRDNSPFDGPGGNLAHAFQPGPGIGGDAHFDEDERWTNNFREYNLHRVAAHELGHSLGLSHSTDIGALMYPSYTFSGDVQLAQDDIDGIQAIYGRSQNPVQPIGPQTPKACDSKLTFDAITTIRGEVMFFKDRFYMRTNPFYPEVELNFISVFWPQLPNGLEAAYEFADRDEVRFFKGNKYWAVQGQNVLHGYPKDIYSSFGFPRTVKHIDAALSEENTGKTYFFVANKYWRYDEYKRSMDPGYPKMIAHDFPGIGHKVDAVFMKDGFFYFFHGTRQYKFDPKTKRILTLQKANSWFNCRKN
Chain of recombinant human MMP-7 (P09237 95-267): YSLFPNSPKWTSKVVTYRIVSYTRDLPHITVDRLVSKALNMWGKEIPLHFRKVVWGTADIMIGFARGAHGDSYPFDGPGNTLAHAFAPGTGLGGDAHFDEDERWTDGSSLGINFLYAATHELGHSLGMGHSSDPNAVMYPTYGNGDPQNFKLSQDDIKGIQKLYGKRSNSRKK
Chain of recombinant human MMP-10 (P09238 99-476): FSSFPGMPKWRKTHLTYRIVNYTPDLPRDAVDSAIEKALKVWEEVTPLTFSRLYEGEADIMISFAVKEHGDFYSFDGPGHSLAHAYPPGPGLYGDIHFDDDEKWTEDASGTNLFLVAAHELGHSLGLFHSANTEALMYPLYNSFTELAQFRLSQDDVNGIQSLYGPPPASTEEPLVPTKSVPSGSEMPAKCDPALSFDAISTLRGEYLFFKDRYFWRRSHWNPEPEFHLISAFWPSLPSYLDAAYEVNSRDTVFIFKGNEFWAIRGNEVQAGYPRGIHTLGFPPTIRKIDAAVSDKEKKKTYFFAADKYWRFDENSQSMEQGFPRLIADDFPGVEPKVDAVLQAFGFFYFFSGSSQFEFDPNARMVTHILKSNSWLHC
Chain of recombinant human MMP-2 (P08253 110-660): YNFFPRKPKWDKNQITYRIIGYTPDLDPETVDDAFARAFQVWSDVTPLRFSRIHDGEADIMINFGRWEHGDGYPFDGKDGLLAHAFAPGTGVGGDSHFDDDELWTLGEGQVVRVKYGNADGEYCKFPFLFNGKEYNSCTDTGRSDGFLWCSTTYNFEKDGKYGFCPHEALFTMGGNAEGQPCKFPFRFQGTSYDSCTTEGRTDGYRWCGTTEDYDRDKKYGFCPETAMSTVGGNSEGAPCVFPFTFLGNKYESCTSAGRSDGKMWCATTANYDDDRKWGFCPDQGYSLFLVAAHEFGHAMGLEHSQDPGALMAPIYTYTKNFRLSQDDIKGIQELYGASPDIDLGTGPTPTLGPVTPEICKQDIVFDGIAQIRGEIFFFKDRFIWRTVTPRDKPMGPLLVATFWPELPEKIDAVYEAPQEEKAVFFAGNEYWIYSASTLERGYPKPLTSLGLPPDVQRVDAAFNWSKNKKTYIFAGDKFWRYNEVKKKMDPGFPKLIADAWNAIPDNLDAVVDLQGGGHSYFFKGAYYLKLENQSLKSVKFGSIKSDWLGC
Chain of recombinant human MMP-3 (P08254 100-477): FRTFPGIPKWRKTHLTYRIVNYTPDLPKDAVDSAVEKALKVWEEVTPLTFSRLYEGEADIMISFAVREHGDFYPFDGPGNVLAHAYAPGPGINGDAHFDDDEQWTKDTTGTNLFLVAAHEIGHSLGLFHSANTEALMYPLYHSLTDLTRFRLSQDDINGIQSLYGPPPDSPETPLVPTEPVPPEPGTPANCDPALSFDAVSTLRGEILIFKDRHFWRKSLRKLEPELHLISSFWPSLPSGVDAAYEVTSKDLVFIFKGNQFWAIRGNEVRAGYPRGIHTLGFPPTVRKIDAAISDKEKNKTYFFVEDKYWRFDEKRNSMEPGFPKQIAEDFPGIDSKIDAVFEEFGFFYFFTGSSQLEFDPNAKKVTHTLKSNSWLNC
Chain of recombinant human MMP-9 (P14780 94-707): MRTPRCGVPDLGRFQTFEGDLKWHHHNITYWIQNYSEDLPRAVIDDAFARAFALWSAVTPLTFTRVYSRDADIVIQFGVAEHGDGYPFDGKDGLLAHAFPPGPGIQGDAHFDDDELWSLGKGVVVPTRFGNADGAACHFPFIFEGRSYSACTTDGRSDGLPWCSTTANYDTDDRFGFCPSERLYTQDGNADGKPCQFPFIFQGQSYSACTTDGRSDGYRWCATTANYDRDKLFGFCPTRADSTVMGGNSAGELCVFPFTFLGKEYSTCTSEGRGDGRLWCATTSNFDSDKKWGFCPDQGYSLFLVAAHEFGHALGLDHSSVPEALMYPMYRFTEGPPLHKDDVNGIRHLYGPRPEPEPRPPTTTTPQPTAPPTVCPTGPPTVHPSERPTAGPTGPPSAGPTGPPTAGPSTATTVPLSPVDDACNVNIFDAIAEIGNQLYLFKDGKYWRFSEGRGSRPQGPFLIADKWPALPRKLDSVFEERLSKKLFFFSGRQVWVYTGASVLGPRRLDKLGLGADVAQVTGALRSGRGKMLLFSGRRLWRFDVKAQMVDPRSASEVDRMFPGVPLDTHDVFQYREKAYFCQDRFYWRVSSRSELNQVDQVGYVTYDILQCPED
Chain of recombinant human MMP-12 catalytic domain (P39900 106-263): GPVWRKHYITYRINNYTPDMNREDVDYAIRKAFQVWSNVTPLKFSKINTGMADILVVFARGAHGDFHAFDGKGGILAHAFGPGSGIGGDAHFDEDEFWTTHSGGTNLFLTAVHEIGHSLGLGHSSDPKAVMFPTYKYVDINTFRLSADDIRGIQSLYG

For `Cc1ccnc(COc2ccc(Sc3ccoc3C3NC(=O)NC3=O)cc2)c1` (stereo not shown) [FC-1], the IC50 [1, 2] was 100 to 1000 nM.
Compound `Cc1cccc(COc2ccc(Sc3ccoc3C3NC(=O)NC3=O)cc2)n1` (stereo not shown) [FC-2] has an IC50 [1, 2] of 10 to 100 nM.
For `Cc1cncc(COc2ccc(Sc3ccoc3C3NC(=O)NC3=O)cc2)c1` (stereo not shown) [FC-3], the IC50 [1, 2] was 10 to 100 nM.
With `Cc1cccc(COc2ccc(Sc3ccoc3C3NC(=O)NC3=O)cc2)[n+]1O` (stereo not shown) [FC-5] the IC50 [1, 2] was over 1000 nM.
Work on `Cc1cc(COc2ccc(Sc3ccoc3C3NC(=O)NC3=O)cc2)c[n+]([O-])c1` (stereo not shown) [FC-6] yielded an IC50 [1, 2] of 100 to 1000 nM.
With `Cc1cc(COc2ccc(Sc3ccoc3C3NC(=O)NC3=O)cc2)cc[n+]1[O-]` (stereo not shown) [FC-7] the IC50 [1, 2] was 10 to 100 nM.
With `Cc1cccc(COc2ccc(Sc3ccoc3C3(C)NC(=O)NC3=O)cc2)c1` (stereo not shown) [FC-8] the IC50 [1, 2] was under 10 nM.
In the case of `CCC1(c2occc2Sc2ccc(OCc3cccc(C)c3)cc2)NC(=O)NC1=O` (stereo not shown) [FC-9], the IC50 [1, 2] is reported as 10 to 100 nM.
For `Cc1cccc(COc2ccc(Sc3ccoc3C3(CC(C)C)NC(=O)NC3=O)cc2)c1` (stereo not shown) [FC-10], the IC50 (recombinant human MMP-7) was over 10000 nM, the IC50 (recombinant human MMP-1) was over 10000 nM and the IC50 (recombinant human MMP-10) was 1000 to 10000 nM. It also gave an IC50 [1, 3] of under 10 nM, an IC50 [1, 2] of under 10 nM and an IC50 (recombinant human MMP-14) of 1000 to 10000 nM. The IC50 (recombinant human MMP-3) was 100 to 1000 nM, the IC50 (recombinant human MMP-13) was 1000 to 10000 nM and the IC50 (recombinant human MMP-9) was 1000 to 10000 nM. It also gave an IC50 (recombinant human MMP-2) of 1000 to 10000 nM and an IC50 (recombinant human MMP-8) of 1000 to 10000 nM.
Compound `CCCC1(c2occc2Sc2ccc(OCc3cccc(C)c3)cc2)NC(=O)NC1=O` (stereo not shown) [FC-11] has an IC50 (recombinant human MMP-7) of over 10000 nM, an IC50 (recombinant human MMP-1) of over 10000 nM and an IC50 (recombinant human MMP-10) of 1000 to 10000 nM. For the same compound, the IC50 [1, 3] was under 10 nM, the IC50 [1, 2] was under 10 nM and the IC50 (recombinant human MMP-14) was 1000 to 10000 nM. It also gave an IC50 (recombinant human MMP-3) of 100 to 1000 nM, an IC50 (recombinant human MMP-13) of 1000 to 10000 nM and an IC50 (recombinant human MMP-9) of 1000 to 10000 nM. The IC50 (recombinant human MMP-2) was 1000 to 10000 nM and the IC50 (recombinant human MMP-8) was 1000 to 10000 nM.
`Cc1cccc(COc2ccc(Sc3ccoc3C3(C(C)C)NC(=O)NC3=O)cc2)c1` (stereo not shown) [FC-12] showed an IC50 [1, 2] of under 10 nM.
`COc1cc(COc2ccc(Sc3ccoc3C3NC(=O)NC3=O)cc2)ccn1` (stereo not shown) [FC-13] gave an IC50 [1, 2] of 10 to 100 nM.
With `CCOc1cc(COc2ccc(Sc3ccoc3C3NC(=O)NC3=O)cc2)ccn1` (stereo not shown) [FC-14] the IC50 [1, 2] was 10 to 100 nM.
In the case of `CC(C)COc1cc(COc2ccc(Sc3ccoc3C3NC(=O)NC3=O)cc2)ccn1` (stereo not shown) [FC-15], the IC50 [1, 2] is reported as 100 to 1000 nM.
`CC(C)Oc1cc(COc2ccc(Sc3ccoc3C3NC(=O)NC3=O)cc2)ccn1` (stereo not shown) [FC-16] gave an IC50 [1, 2] of 100 to 1000 nM.
`NC(=O)c1cccc(COc2ccc(Sc3ccoc3C3NC(=O)NC3=O)cc2)c1` (stereo not shown) [FC-17] showed an IC50 (recombinant human MMP-7) of over 10000 nM, an IC50 (recombinant human MMP-1) of over 10000 nM and an IC50 (recombinant human MMP-10) of 100 to 1000 nM. The IC50 [1, 3] was under 10 nM, the IC50 [1, 2] was under 10 nM and the IC50 (recombinant human MMP-14) was 1000 to 10000 nM. For the same compound, the IC50 (recombinant human MMP-3) was 100 to 1000 nM, the IC50 (recombinant human MMP-13) was 100 to 1000 nM and the IC50 (recombinant human MMP-9) was 1000 to 10000 nM. The IC50 (recombinant human MMP-2) was 100 to 1000 nM and the IC50 (recombinant human MMP-8) was 100 to 1000 nM.
Compound `NC(=O)c1ccc(COc2ccc(Sc3ccoc3C3NC(=O)NC3=O)cc2)cc1` (stereo not shown) [FC-18] has an IC50 [1, 2] of 10 to 100 nM.
`CCOc1cccc(COc2ccc(Sc3ccoc3C3NC(=O)NC3=O)cc2)c1` (stereo not shown) [FC-20] was tested, and the IC50 [1, 2] was 100 to 1000 nM.
`CC(C)Oc1cccc(COc2ccc(Sc3ccoc3C3NC(=O)NC3=O)cc2)c1` (stereo not shown) [FC-21] gave an IC50 [1, 2] of 100 to 1000 nM.
`CCCOc1cccc(COc2ccc(Sc3ccoc3C3NC(=O)NC3=O)cc2)c1` (stereo not shown) [FC-22] showed an IC50 [1, 2] of over 1000 nM.
In the case of `O=C1NC(=O)C(c2occc2Sc2ccc(OCc3cccc(CO)c3)cc2)N1` (stereo not shown) [FC-23], the IC50 (recombinant human MMP-7) is reported as over 10000 nM, the IC50 (recombinant human MMP-1) is reported as over 10000 nM and the IC50 (recombinant human MMP-10) is reported as 1000 to 10000 nM. It also gave an IC50 [1, 3] of under 10 nM, an IC50 [1, 2] of under 10 nM and an IC50 (recombinant human MMP-14) of 1000 to 10000 nM. For the same compound, the IC50 (recombinant human MMP-3) was 1000 to 10000 nM, the IC50 (recombinant human MMP-13) was 1000 to 10000 nM and the IC50 (recombinant human MMP-9) was 1000 to 10000 nM. The IC50 (recombinant human MMP-2) was 100 to 1000 nM and the IC50 (recombinant human MMP-8) was 1000 to 10000 nM.
In the case of `O=C1NC(=O)C(c2occc2Sc2ccc(OCc3ccccc3CO)cc2)N1` (stereo not shown) [FC-24], the IC50 [1, 2] is reported as under 10 nM.
Work on `O=C1NC(=O)C(c2occc2Sc2ccc(OCc3ccc(CO)cc3)cc2)N1` (stereo not shown) [FC-25] yielded an IC50 [1, 2] of under 10 nM.
Work on `O=C1NC(=O)C(c2occc2Sc2ccc(OCc3cccc(O)c3)cc2)N1` (stereo not shown) [FC-26] yielded an IC50 [1, 2] of under 10 nM.
Compound `Cc1cc(Sc2ccc(OCc3cccc(CO)c3)cc2)c(C2NC(=O)NC2=O)o1` (stereo not shown) [FC-27] has an IC50 (recombinant human MMP-7) of over 10000 nM, an IC50 (recombinant human MMP-1) of over 10000 nM and an IC50 (recombinant human MMP-10) of 100 to 1000 nM. The IC50 [1, 3] was under 10 nM, the IC50 [1, 2] was under 10 nM and the IC50 (recombinant human MMP-14) was 1000 to 10000 nM. For the same compound, the IC50 (recombinant human MMP-3) was 100 to 1000 nM, the IC50 (recombinant human MMP-13) was 100 to 1000 nM and the IC50 (recombinant human MMP-9) was 1000 to 10000 nM. For the same compound, the IC50 (recombinant human MMP-2) was 100 to 1000 nM and the IC50 (recombinant human MMP-8) was 100 to 1000 nM.
`Cc1cccc(COc2ccc(Sc3cc(C)oc3C3NC(=O)NC3=O)cc2)c1` (stereo not shown) [FC-28] was tested, and the IC50 [1, 2] was 10 to 100 nM.
In the case of `NC(=O)c1cc(COc2ccc(Sc3ccoc3C3NC(=O)NC3=O)cc2)ccn1` (stereo not shown) [FC-29], the IC50 [1, 2] is reported as 10 to 100 nM.
Compound `CCC1(c2occc2Sc2ccc(OCc3ccnc(C)c3)cc2)NC(=O)NC1=O` (stereo not shown) [FC-32] has an IC50 [1, 2] of under 10 nM.
In the case of `Cc1cc(CN(C)c2ccc(Sc3ccoc3C3NC(=O)NC3=O)cc2)ccn1` (stereo not shown) [FC-33], the IC50 [1, 2] is reported as over 1000 nM.
